Results on 35 molecules are retold here after patent publication US20010049374A1 (priority 1997, published 2001).

Broadly, the IC50 is the concentration at which inhibition is half-maximal.

The target of the first assay is T1, urokinase enzyme Abbokinase (Homo sapiens, UniProt P00749).
T1 construct: purchased Abbott Laboratories, Abbott Park, Ill
The experiment in a line: Determination of urokinase inhibition (Abbokinase, chromogenic substrate S-2444). As to conditions: Inhibitory potency against urokinase; substrate S-2444 at 200 μM, enzyme 2-3 nM, pH 7.4, 405 nm; read-out: IC50. It counts as biochemical.
Experimental: Several vials were reconstituted as directed on the vial, aliquoted and stored frozen. The enzyme was further diluted in assay buffer and 10 μl was used in the assay. Enzyme concentration in the assay was 2-3 nM. […] The Spectromax® calculated the reaction rates which were used to calculate percent inhibition of the compounds of this invention versus the reaction rate of the enzyme in the absence of any inhibitor. The Ki's of the inhibitors were calculated from the percent inhibition and previously established Km.
Take “Ethyl [6-(aminoiminomethyl)-2-naphthalenyl]carbamate [Example 78]”: the IC50 came out at 3570 nM.

As for “Methyl 3-[[7-(aminoiminomethyl)-1-naphthalenyl]amino]-3-oxopropionate [Example 17]”, the IC50 came to 4260 nM.

Regarding “Methyl [3-methoxy-6-(aminoiminomethyl)-4-naphthalenyl]carbamate [Example 90]”, the concentration for half-maximal inhibition (IC50) worked out at 70 nM.

With “Methyl [7-(aminoiminomethyl)-1-naphthalenyl)carbamate [Example 16]”, the IC50 is 30 nM.

Take “Methyl [(7-aminoiminomethyl-2-methoxy-1-naphthalenyl)oxy]acetate [Example 6]”: the IC50 was found to be 2300 nM.

With “N-(6-Aminoiminomethyl-2-naphthalenyl)-N′-benzylurea [Example 69]”, the concentration for half-maximal inhibition (IC50) was 1380 nM.

“N-(6-Aminoiminomethyl-2-naphthalenyl)-N′-isopropylurea [Example 71]”: the IC50 was 2390 nM.

“N-(6-Aminoiminomethyl-2-naphthalenyl)-N′-methylurea [Example 70]”: the IC50 stood at 2570 nM.

Consider “N-(6-aminoiminomethyl-2-naphthalenyl)-N′-benzyloxyurea [Example 75]”, for which the IC50 stood at 2090 nM.

In the case of “N-(6-aminoiminomethyl-2-naphthalenyl)-N′-cyclohexylurea [Example 74]”, the 50% inhibitory concentration (IC50) came out at 1610 nM.

On to “N-(6-aminoiminomethyl-2-naphthalenyl)-N′-phenylurea [Example 40]”, for which the IC50 stood at 310 nM.

As for “N-[3-(methyl)phenyl]-6-aminoiminomethyl-2-naphthalenecarboxamide [Example 48]”, the IC50 stood at 1300 nM.

“N-[4-(Aminomethyl)phenyl]-6-aminoiminomethyl-2-naphthalenecarboxamide [Example 8]”: the IC50 amounted to 100 nM.

Turning to “N-[4-(aminocarbonyl)phenyl]-6-(aminoiminomethyl)-2-naphthalenecarboxamide [Example 184]”, the IC50 is 375 nM.

For “N-[6-(Aminoiminomethyl)-2-naphthalenyl]-4-(aminomethyl)benzamide [Example 77]”, the IC50 was 230 nM.

Take “N-[6-(aminoiminomethyl)-2-naphthalenyl)benzamide [Example 136]”: the IC50 is 1670 nM.

For “N-[6-(aminoiminomethyl)-2-naphthalenyl]-N′-(4-aminophenyl)urea [Example 138]”, the IC50 worked out at 460 nM.

With “N-[7-(aminoiminomethyl )-1-naphthalenyl]urea [Example 161]”, the half-inhibitory concentration (IC50) turned out to be 1590 nM.

For the molecule “N-[7-(aminoiminomethyl)-1-naphthalenyl)-2-methoxyacetamide [Example 160]”, the IC50 was 2620 nM.

For “N-[7-(aminoiminomethyl)-1-naphthalenyl)acetamide [Example 15]”, the IC50 came to 2500 nM.

“N-[7-(aminoiminomethyl)-1-naphthalenyl)propanamide [Example 159]”: the half-inhibitory concentration (IC50) was 2230 nM.

For the molecule “N-[7-(aminoiminomethyl)-1-naphthalenyl]-1,3-benzodioxole-5-carboxamide [Example 19]”, the IC50 stood at 2210 nM.

Turning to “N-[7-(aminoiminomethyl)-1-naphthalenyl]-2-(phenylmethoxy)acetamide [Example 18]”, the IC50 amounted to 420 nM.

In the case of “N-[7-(aminoiminomethyl)-1-naphthalenyl]-2-hydroxyacetamide [Example 162]”, the IC50 was 1330 nM.

For “N-[7-(aminoiminomethyl)-1-naphthalenyl]-N′-methylurea [Example 157]”, the half-inhibitory concentration (IC50) was found to be 3120 nM.

In the case of “N-[7-(aminoiminomethyl)-1-naphthalenyl]benzenemethanesulfonamide [Example 20]”, the IC50 turned out to be 803 nM.

As for “N-phenyl-6-aminoiminomethyl-2-naphthalenecarboxamide [Example 55]”, the IC50 was found to be 900 nM.

For the molecule “[(7-aminoiminomethyl-2-methoxy-1-naphthalenyl)oxy]acetic acid [Example 7]”, the IC50 was determined as 3500 nM.

In the case of “ethyl [7-(aminoiminomethyl)-1-naphthalenyl)carbamate [Example 158]”, the half-inhibitory concentration (IC50) worked out at 90 nM.

As for “methyl 2-[4-[[[6-(aminoiminomethyl)-2-naphthalenyl]carbonyl]amino]phenoxy]acetate [Example 95]”, the IC50 is 1730 nM.

On to “methyl 2-[[6-(aminoiminomethyl)-2-naphthalenyl]oxy]acetate [Example 185]”, for which the IC50 was 3190 nM.

On to “methyl 4-[[[7-(aminoiminomethyl)-1-(2-pyrimidinylamino)-2-naphthalenyl]oxy]methyl]benzoate [Example 133]”, for which the IC50 is 44 nM.

As to “methyl [7-(aminoiminomethyl)-2-methoxy-I-naphthalenyl)carbamate [Example 99]”, the concentration for half-maximal inhibition (IC50) came out at 3020 nM.

With “propyl [7-(aminoiminomethyl)-1-naphthalenyl]carbamate [Example 156]”, the IC50 was determined as 180 nM.

In the next assay the test system is tumor metastasis.
Assay: not given
As to conditions: in vivo; Kellen et al. 1988; cited from earlier work.
In the case of `N=C(N)NC(=O)c1nc(Cl)c(N)nc1N` [Amiloride], the “inhibition of tumor metastasis” value is listed as “inhibit tumor metastasis in vivo”.

A further assay deals with angiogenesis/capillary network formation.
Assay: not given
As to conditions: in vitro; Alliegro and Glaser 1991; cited from earlier work.
For `N=C(N)NC(=O)c1nc(Cl)c(N)nc1N` [Amiloride], the “inhibition of angiogenesis/capillary network formation” value is “angiogenesis/capillary network formation in vitro”.
